{
  "source": "patent US12569503B2",
  "about": "“Methods and compositions for substituted axially-chiral cannabinol analogs” (University of Florida Research Foundation, Inc., priority 2019, dated 2026)",
  "key": {"mice [1]": {"test_system": "mice", "test": "Locomotion measured as ambulatory time (modified tetrad assay)", "type": "in vivo", "settings": "for Locomotion (in words): modified tetrad assay, THC 10-56 mg/kg, ax-CBN 56-320 mg/kg"}, "mice [2]": {"test_system": "mice", "test": "Acute thermal antinociception (tail-flick, modified tetrad assay)", "type": "in vivo", "settings": "THC 10-56 mg/kg, ax-CBN 56-320 mg/kg"}, "C57bl/6j mice": {"test_system": "C57bl/6j mice", "test": "Reduction of body temperature (hypothermia)", "settings": "for Effect on body temperature (in words): mice, THC 10-56 mg/kg, ax-CBN 56-320 mg/kg"}, "cannabinoid receptors": {"biological_target": "cannabinoid receptors", "settings": "in a variety of studies, cited from earlier work"}, "[3]": {"test": "Locomotion measured as ambulatory time (modified tetrad assay)", "type": "in vivo, mice", "settings": "C57bl/6j, mouse, in vivo; Table 4; read-out: Hypolocomotion ED50 ((95% CL)"}, "[4]": {"test": "Reduction of body temperature (hypothermia)", "settings": "C57bl/6j, mouse, in vivo, Body Temp. ED50 ((95% CL) mg/kg), Table 4; hypothermia"}, "[5]": {"test_system": "mice trained to discriminate 10 mg/kg THC", "settings": "rimonabant 0.32 and 1 mg/kg versus vehicle; cited from earlier work"}},
  "note": "Entries after “also recorded” stand apart in the source; their conditions may differ.",
  "data": [
    {"compound": "10-methyl-CBN [ax-CBN]", "values": [
      {"measurement": "Hypolocomotion ED50 ((95% CL)", "setting": "mice [1]; Table 4", "result": 290.20, "unit": "mg/kg"},
      {"measurement": "Locomotion (in words)", "setting": "mice [1]", "result": "decreased locomotion"},
      {"measurement": "Acute thermal antinociception (in words)", "setting": "mice [2]", "result": "dose-relatedly produced thermal antinociception"},
      {"measurement": "Body Temp. ED50 ((95% CL)", "setting": "C57bl/6j mice; Table 4, hypothermia", "result": 308.98, "unit": "mg/kg"},
      {"measurement": "Effect on body temperature (in words)", "setting": "C57bl/6j mice", "result": "hypothermia"}
    ]},
    {"compound": "CCCCCc1cc(O)c2c(c1)OC(C)(C)c1ccc(C)cc1-2", "note": "[CBN, cannabinol]", "values": [
      {"measurement": "Binding affinity for cannabinoid receptors", "setting": "cannabinoid receptors", "result": "significantly higher"}
    ]},
    {"compound": "CCCCCc1cc(O)c2c(c1)OC(C)(C)[C@@H]1CCC(C)=C[C@@H]21", "note": "[THC, (−)-trans-Δ^9-tetrahydrocannabinol]", "values": [
      {"measurement": "ED50", "setting": "[3]", "result": 25.5, "unit": "mg/kg"},
      {"measurement": "Locomotion (in words)", "setting": "mice [1]", "result": "decreased locomotion"},
      {"measurement": "Ki", "setting": "cannabinoid receptors; read-out: Binding affinity for cannabinoid receptors", "result": "20 to 40", "unit": "nM"},
      {"measurement": "Acute thermal antinociception (in words)", "setting": "mice [2]", "result": "dose-relatedly produced thermal antinociception"},
      {"measurement": "ED50", "setting": "[4]", "result": 17.5, "unit": "mg/kg"},
      {"measurement": "Effect on body temperature (in words)", "setting": "C57bl/6j mice", "result": "robust depression of body temperature; also recorded: hypothermia"}
    ]},
    {"compound": "Cc1c(C(=O)NN2CCCCC2)nn(-c2ccc(Cl)cc2Cl)c1-c1ccc(Cl)cc1", "note": "[rimonabant]", "values": [
      {"measurement": "Effect on THC dose effect in drug discrimination (in words)", "setting": "[5]", "result": "antagonizes the dose effect of THC"}
    ]}
  ]
}
